Paper PMC6858373 (Scientific Reports, 2019)
Where two headings read alike, the source gives them in different places.

Tests used:
[1] = target: T1, FGF14:Nav1.6 C-tail complex (Homo sapiens, UniProt Q92915+Q9UQD0); test: Split-luciferase complementation assay (LCA) in Clone V double stable HEK293 cells; type: cell-based; settings: for Split Luciferase Assay Z-score Set 1 / Split Luciferase Assay % Lum Set 1 / Split Luciferase Assay Z-score Set 2 / Split Luciferase Assay %Lum Set 2: CC_NCI screening; for Split Luciferase Assay Z-score Set 1 / Split Luciferase Assay % Lum Set 1: biological replicate Set 1; for Split Luciferase Assay Z-score Set 1 / Split Luciferase Assay Z-score Set 2: normalized to on-plate 0.3% DMSO controls; for Split Luciferase Assay % Lum Set 1 / Split Luciferase Assay %Lum Set 2: normalized to on-plate 0.3% DMSO controls (n=16 per plate); for Split Luciferase Assay Z-score Set 2 / Split Luciferase Assay %Lum Set 2: biological replicate Set 2; for Split Luciferase Assay %Lum Avg: average of Set 1 and Set 2, normalized to 0.3% DMSO controls
T1 construct: polymerase chain reaction (PCR) amplification of the FGF14 open reading frame (nt 1–855); C-terminal fragment of Nav1.6 (amino acids 1763–1976) fused with CD4ΔC-tail (amino acids 1–395); expressed in transfected cells

[2] = target: full-length P. pyralis luciferase (Photinus pyralis, UniProt P08659, K549A/L550V/N119G/N50D/S548I); type: cell-based; settings: CC_NCI screening; normalized to on-plate 0.3% DMSO controls
in vitro = settings: human, Clone V cells
Clone V cells = test: CellTiter Blue (CTB) cell viability counter-screen; settings: CC_NCI screening; normalized to on-plate 0.3% DMSO controls

Chain of full-length P. pyralis luciferase (P08659 whole entry N50D/N119G/S548I/K549A/L550V, looked up): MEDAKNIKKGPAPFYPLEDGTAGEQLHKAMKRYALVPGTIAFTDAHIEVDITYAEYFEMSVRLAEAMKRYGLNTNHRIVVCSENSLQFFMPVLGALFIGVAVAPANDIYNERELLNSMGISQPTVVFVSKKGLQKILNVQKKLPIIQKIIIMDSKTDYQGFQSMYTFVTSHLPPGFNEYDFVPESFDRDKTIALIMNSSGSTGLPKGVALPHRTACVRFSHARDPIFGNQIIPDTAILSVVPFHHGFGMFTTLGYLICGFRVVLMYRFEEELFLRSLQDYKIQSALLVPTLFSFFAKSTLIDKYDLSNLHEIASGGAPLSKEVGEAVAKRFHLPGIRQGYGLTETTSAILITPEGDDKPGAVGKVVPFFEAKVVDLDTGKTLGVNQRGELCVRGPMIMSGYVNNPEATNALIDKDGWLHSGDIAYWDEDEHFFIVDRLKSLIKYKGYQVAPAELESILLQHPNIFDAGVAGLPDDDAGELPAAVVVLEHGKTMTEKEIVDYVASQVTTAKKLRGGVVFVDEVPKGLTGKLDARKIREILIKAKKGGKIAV
T1 sequence (Q92915 1-252 isoform Q92915-2): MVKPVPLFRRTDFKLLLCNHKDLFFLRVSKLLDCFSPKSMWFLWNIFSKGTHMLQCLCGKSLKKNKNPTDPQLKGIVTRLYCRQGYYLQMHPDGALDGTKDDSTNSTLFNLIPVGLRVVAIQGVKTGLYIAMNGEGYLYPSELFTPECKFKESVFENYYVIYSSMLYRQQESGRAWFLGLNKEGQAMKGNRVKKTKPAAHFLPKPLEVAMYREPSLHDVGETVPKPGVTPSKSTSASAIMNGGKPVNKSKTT
T1 sequence (Q9UQD0 1763-1976 limits assumed): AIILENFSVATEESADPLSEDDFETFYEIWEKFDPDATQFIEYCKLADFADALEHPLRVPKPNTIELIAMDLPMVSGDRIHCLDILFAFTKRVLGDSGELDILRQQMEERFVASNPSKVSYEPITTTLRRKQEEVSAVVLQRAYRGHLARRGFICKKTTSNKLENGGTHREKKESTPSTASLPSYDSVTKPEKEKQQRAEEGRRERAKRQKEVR

Row | Compound | Split Luciferase Assay Z-score Set 1 [1] | Split Luciferase Assay % Lum Set 1 [1] [%] | Split Luciferase Assay Z-score Set 2 [1] | Split Luciferase Assay %Lum Set 2 [1] [%] | Split Luciferase Assay %Lum Avg [1] [%] | Luciferase Assay % Lum (full-length luciferase counter-screen) [2] [%] | Luciferase Assay Z-score (full-length luciferase counter-screen) [2] | viability at 16 h, 30 µM (in vitro) [%] | Toxicity Assay Z-score (CTB cell viability) (Clone V cells) | Z-score (LCA primary screening) ([1]; 30 µM, 384-well, average of primary screening (n = 2), vs on-plate 0.3% DMSO) | dose-response behavior of repurchased compounds ([1]; 10-point dose response 0.25-50 µM, Clone V cells) | IMin (% Luminescence) ([1]; antagonists, Clone V cells, 384-well, normalized to DMSO) | action toward the FGF14:Nav1.6 C-tail interaction ([1]; dose-dependency validation using fresh compound samples) | IC50 ([1]; estimated, 8-point dose response 0.25-30 µM, n = 4 per concentration, library compounds, read-out: IC50) [µM] | IC50 ([1]; repurchased compounds, 10-point dose response 0.25-50 µM, n = 8 per concentration, Clone V cells, 384-well, read-out: in-cell IC50) [µM]
1 | Cc1cc(Nc2cc(N3CCN(C)CC3)nc(Sc3ccc(NC(=O)C4CC4)cc3)n2)[nH]n1 [TOZASERTIB] | -1.55 | 80.77 | -6.02 | 26.01 | 53.39 | 73.72 | -3.37 | 106 | 0.86 | – | – | – | – | – | –
2 | Oc1c2ccccc2c2c3c(cccc13)N=N2 [SP600125] | 0.99 | 112.30 | -1.20 | 85.31 | 98.80 | 110.92 | 1.40 | 109 | 1.21 | – | – | – | – | – | –
3 | CC(=O)O[C@@]12CO[C@@H]1C[C@H](O)[C@@]1(C)C(=O)[C@H](O)C3=C(C)[C@@H](OC(=O)[C@H](O)[C@@H](NC(=O)OC(C)(C)C)c4ccccc4)C[C@@](O)([C@@H](OC(=O)c4ccccc4)[C@H]21)C3(C)C [Docetaxel] | 6.00 | 174.26 | 4.48 | 155.01 | 164.63 | 101.54 | 0.20 | 107 | 0.98 | – | – | – | – | – | –
4 | Nc1ccccc1NC(=O)c1ccc(CNc2nccc(-c3cccnc3)n2)cc1 [MGCD0103] | -1.82 | 77.51 | -1.96 | 75.94 | 76.73 | 90.12 | -1.27 | 104 | 0.52 | – | – | – | – | – | –
5 | C[C@@H](Oc1cc(-c2cnn(C3CCNCC3)c2)cnc1N)c1c(Cl)ccc(F)c1Cl [Crizotinib, reference compound] | -5.24 | 35.11 | -5.34 | 34.33 | 34.72 | 91.93 | -1.03 | 102 | 0.27 | −5.29 | purely inhibitory effects | 34.72 | acted as antagonists | 12.2 | 15.5
6 | CCCCCCCCc1ccc(CCC(N)(CO)CO)cc1 [Fingolimod] | -0.06 | 99.25 | 0.58 | 107.15 | 103.20 | 94.97 | -0.64 | 110 | 1.42 | – | – | – | – | – | –
